BindingDB's records for doi:10.1016/j.bmcl.2004.06.092 (Merck Research Laboratories, 2004)

What was measured:
[1] = target: T1, Dimer of Gag-Pol polyprotein [489-587,Q496K,L499I,M525I,N526D,M535I,R546K,L552P,A560V,G562S,I573V,L579M,I582L] (Human immunodeficiency virus 1, UniProt P12497, A560V/G562S/I573V/I582L/L499I/L552P/L579M/M525I/M535I/N526D/Q496K/R546K); test: Protease Inhibition Assay
T1 construct: 489-587
Experimental: (§1) Assay of HIV protease inhibition was performed by peptide cleavage using the substrate Val-Ser-Gln-Asn-beta-naphthylalanine*Pro-Ile-Val. Products of the cleavage reaction were quantified by HPLC detection, and data were fit to nonlinear least squares equations for determination of steady-state Michaelis-Menten kinetics.

[2] = target: T2, Dimer of Gag-Pol polyprotein [489-587,Q496K] (Human immunodeficiency virus 1, UniProt P12497, Q496K); test: Protease Inhibition Assay; conditions: pH 5.5; 30 °C
T2 construct: 489-587
Experimental: as §1

Row | Structure (SMILES) | IC50 [1] | IC50 [2]
1 | COc1cncc(-c2cnc(C(C)(C)N3CCN(C[C@@H](O)C[C@@H](Cc4nnco4)C(=O)N[C@H]4c5ccccc5OC[C@H]4O)[C@H](C(=O)NCC(F)(F)F)C3)o2)c1 [(2S)-1-[(2S,4S)-2-hydroxy-4-{[(3S,4S)-3-hydroxy-3,4-dihydro-2H-1-benzopyran-4-yl]carbamoyl}-4-(1,3,4-oxadiazol-2-ylmethyl)butyl]-4-{2-[5-(5-methoxypyridin-3-yl)-1,3-oxazol-2-yl]propan-2-yl}-N-(2,2,2-trifluoroethyl)piperazine-2-carboxamide] | 7400 pM | 240 pM
2 | COc1cncc(-c2cnc(C(C)(C)N3CCN(C[C@@H](O)C[C@@H](Cc4nnc(C)o4)C(=O)N[C@H]4c5ccccc5OC[C@H]4O)[C@H](C(=O)NCC(F)(F)F)C3)o2)c1 [(2S)-1-[(2S,4S)-2-hydroxy-4-{[(3S,4S)-3-hydroxy-3,4-dihydro-2H-1-benzopyran-4-yl]carbamoyl}-4-[(5-methyl-1,3,4-oxadiazol-2-yl)methyl]butyl]-4-{2-[5-(5-methoxypyridin-3-yl)-1,3-oxazol-2-yl]propan-2-yl}-N-(2,2,2-trifluoroethyl)piperazine-2-carboxamide] | 15000 pM | 400 pM
3 | COc1cncc(-c2cnc(C(C)(C)N3CCN(C[C@@H](O)C[C@@H](Cc4nnc(-c5ccccc5)o4)C(=O)N[C@H]4c5ccccc5OC[C@H]4O)[C@H](C(=O)NCC(F)(F)F)C3)o2)c1 [(2S)-1-[(2S,4S)-2-hydroxy-4-{[(3S,4S)-3-hydroxy-3,4-dihydro-2H-1-benzopyran-4-yl]carbamoyl}-4-[(5-phenyl-1,3,4-oxadiazol-2-yl)methyl]butyl]-4-{2-[5-(5-methoxypyridin-3-yl)-1,3-oxazol-2-yl]propan-2-yl}-N-(2,2,2-trifluoroethyl)piperazine-2-carboxamide] | – | 480 pM
4 | CCCc1nnc(C[C@H](C[C@H](O)CN2CCN(C(C)(C)c3ncc(-c4cncc(OC)c4)o3)C[C@H]2C(=O)NCC(F)(F)F)C(=O)N[C@H]2c3ccccc3OC[C@H]2O)o1 [(2S)-1-[(2S,4S)-2-hydroxy-4-{[(3S,4S)-3-hydroxy-3,4-dihydro-2H-1-benzopyran-4-yl]carbamoyl}-4-[(5-propyl-1,3,4-oxadiazol-2-yl)methyl]butyl]-4-{2-[5-(5-methoxypyridin-3-yl)-1,3-oxazol-2-yl]propan-2-yl}-N-(2,2,2-trifluoroethyl)piperazine-2-carboxamide] | – | 320 pM
5 | CC(C)(c1ncc(-c2ccc(Cl)cc2)o1)N1CCN(C[C@@H](O)C[C@@H](Cc2nnco2)C(=O)N[C@H]2c3ccccc3OC[C@H]2O)[C@H](C(=O)NCC(F)(F)F)C1 [(2S)-4-{2-[5-(4-chlorophenyl)-1,3-oxazol-2-yl]propan-2-yl}-1-[(2S,4S)-2-hydroxy-4-{[(3S,4S)-3-hydroxy-3,4-dihydro-2H-1-benzopyran-4-yl]carbamoyl}-4-(1,3,4-oxadiazol-2-ylmethyl)butyl]-N-(2,2,2-trifluoroethyl)piperazine-2-carboxamide] | 43 pM | < 15 pM
6 | Cc1nnc(C[C@H](C[C@H](O)CN2CCN(C(C)(C)c3ncc(-c4ccc(Cl)cc4)o3)C[C@H]2C(=O)NCC(F)(F)F)C(=O)N[C@H]2c3ccccc3OC[C@H]2O)o1 [(2S)-4-{2-[5-(4-chlorophenyl)-1,3-oxazol-2-yl]propan-2-yl}-1-[(2S,4S)-2-hydroxy-4-{[(3S,4S)-3-hydroxy-3,4-dihydro-2H-1-benzopyran-4-yl]carbamoyl}-4-[(5-methyl-1,3,4-oxadiazol-2-yl)methyl]butyl]-N-(2,2,2-trifluoroethyl)piperazine-2-carboxamide] | 60 pM | 16 pM
7 | CC(C)(c1ncc(-c2ccc(Cl)cc2)o1)N1CCN(C[C@@H](O)C[C@@H](Cc2nnc(-c3ccccc3)o2)C(=O)N[C@H]2c3ccccc3OC[C@H]2O)[C@H](C(=O)NCC(F)(F)F)C1 [(2S)-4-{2-[5-(4-chlorophenyl)-1,3-oxazol-2-yl]propan-2-yl}-1-[(2S,4S)-2-hydroxy-4-{[(3S,4S)-3-hydroxy-3,4-dihydro-2H-1-benzopyran-4-yl]carbamoyl}-4-[(5-phenyl-1,3,4-oxadiazol-2-yl)methyl]butyl]-N-(2,2,2-trifluoroethyl)piperazine-2-carboxamide] | 180 pM | < 15 pM
8 | CCCc1nnc(C[C@H](C[C@H](O)CN2CCN(C(C)(C)c3ncc(-c4ccc(Cl)cc4)o3)C[C@H]2C(=O)NCC(F)(F)F)C(=O)N[C@H]2c3ccccc3OC[C@H]2O)o1 [(2S)-4-{2-[5-(4-chlorophenyl)-1,3-oxazol-2-yl]propan-2-yl}-1-[(2S,4S)-2-hydroxy-4-{[(3S,4S)-3-hydroxy-3,4-dihydro-2H-1-benzopyran-4-yl]carbamoyl}-4-[(5-propyl-1,3,4-oxadiazol-2-yl)methyl]butyl]-N-(2,2,2-trifluoroethyl)piperazine-2-carboxamide] | 120 pM | < 15 pM
9 | CC(C)(c1ncc(-c2ccc(F)cc2)o1)N1CCN(C[C@@H](O)C[C@@H](Cc2nnco2)C(=O)N[C@H]2c3ccccc3OC[C@H]2O)[C@H](C(=O)NCC(F)(F)F)C1 [(2S)-4-{2-[5-(4-fluorophenyl)-1,3-oxazol-2-yl]propan-2-yl}-1-[(2S,4S)-2-hydroxy-4-{[(3S,4S)-3-hydroxy-3,4-dihydro-2H-1-benzopyran-4-yl]carbamoyl}-4-(1,3,4-oxadiazol-2-ylmethyl)butyl]-N-(2,2,2-trifluoroethyl)piperazine-2-carboxamide] | 65 pM | 24 pM
10 | Cc1nnc(C[C@H](C[C@H](O)CN2CCN(C(C)(C)c3ncc(-c4ccc(F)cc4)o3)C[C@H]2C(=O)NCC(F)(F)F)C(=O)N[C@H]2c3ccccc3OC[C@H]2O)o1 [(2S)-4-{2-[5-(4-fluorophenyl)-1,3-oxazol-2-yl]propan-2-yl}-1-[(2S,4S)-2-hydroxy-4-{[(3S,4S)-3-hydroxy-3,4-dihydro-2H-1-benzopyran-4-yl]carbamoyl}-4-[(5-methyl-1,3,4-oxadiazol-2-yl)methyl]butyl]-N-(2,2,2-trifluoroethyl)piperazine-2-carboxamide] | 190 pM | 27 pM
11 | CC(C)(c1ncc(-c2ccc(F)cc2)o1)N1CCN(C[C@@H](O)C[C@@H](Cc2nnc(-c3ccccc3)o2)C(=O)N[C@H]2c3ccccc3OC[C@H]2O)[C@H](C(=O)NCC(F)(F)F)C1 [(2S)-4-{2-[5-(4-fluorophenyl)-1,3-oxazol-2-yl]propan-2-yl}-1-[(2S,4S)-2-hydroxy-4-{[(3S,4S)-3-hydroxy-3,4-dihydro-2H-1-benzopyran-4-yl]carbamoyl}-4-[(5-phenyl-1,3,4-oxadiazol-2-yl)methyl]butyl]-N-(2,2,2-trifluoroethyl)piperazine-2-carboxamide] | – | 20 pM
12 | CCCc1nnc(C[C@H](C[C@H](O)CN2CCN(C(C)(C)c3ncc(-c4ccc(F)cc4)o3)C[C@H]2C(=O)NCC(F)(F)F)C(=O)N[C@H]2c3ccccc3OC[C@H]2O)o1 [(2S)-4-{2-[5-(4-fluorophenyl)-1,3-oxazol-2-yl]propan-2-yl}-1-[(2S,4S)-2-hydroxy-4-{[(3S,4S)-3-hydroxy-3,4-dihydro-2H-1-benzopyran-4-yl]carbamoyl}-4-[(5-propyl-1,3,4-oxadiazol-2-yl)methyl]butyl]-N-(2,2,2-trifluoroethyl)piperazine-2-carboxamide] | 190 pM | 16 pM
13 | O=C(N[C@H]1c2ccccc2OC[C@H]1O)[C@H](Cc1nnco1)C[C@H](O)CN1CCN(Cc2ccc(-c3ccc(Cl)cc3)o2)C[C@H]1C(=O)NCC(F)(F)F [(2S)-4-{[5-(4-chlorophenyl)furan-2-yl]methyl}-1-[(2S,4S)-2-hydroxy-4-{[(3S,4S)-3-hydroxy-3,4-dihydro-2H-1-benzopyran-4-yl]carbamoyl}-4-(1,3,4-oxadiazol-2-ylmethyl)butyl]-N-(2,2,2-trifluoroethyl)piperazine-2-carboxamide] | 99 pM | 15 pM
14 | Cc1nnc(C[C@H](C[C@H](O)CN2CCN(Cc3ccc(-c4ccc(Cl)cc4)o3)C[C@H]2C(=O)NCC(F)(F)F)C(=O)N[C@H]2c3ccccc3OC[C@H]2O)o1 [(2S)-4-{[5-(4-chlorophenyl)furan-2-yl]methyl}-1-[(2S,4S)-2-hydroxy-4-{[(3S,4S)-3-hydroxy-3,4-dihydro-2H-1-benzopyran-4-yl]carbamoyl}-4-[(5-methyl-1,3,4-oxadiazol-2-yl)methyl]butyl]-N-(2,2,2-trifluoroethyl)piperazine-2-carboxamide] | – | < 15 pM
15 | O=C(N[C@H]1c2ccccc2OC[C@H]1O)[C@H](Cc1nnc(-c2ccccc2)o1)C[C@H](O)CN1CCN(Cc2ccc(-c3ccc(Cl)cc3)o2)C[C@H]1C(=O)NCC(F)(F)F [(2S)-4-{[5-(4-chlorophenyl)furan-2-yl]methyl}-1-[(2S,4S)-2-hydroxy-4-{[(3S,4S)-3-hydroxy-3,4-dihydro-2H-1-benzopyran-4-yl]carbamoyl}-4-[(5-phenyl-1,3,4-oxadiazol-2-yl)methyl]butyl]-N-(2,2,2-trifluoroethyl)piperazine-2-carboxamide] | – | 19 pM
16 | CCCc1nnc(C[C@H](C[C@H](O)CN2CCN(Cc3ccc(-c4ccc(Cl)cc4)o3)C[C@H]2C(=O)NCC(F)(F)F)C(=O)N[C@H]2c3ccccc3OC[C@H]2O)o1 [(2S)-4-{[5-(4-chlorophenyl)furan-2-yl]methyl}-1-[(2S,4S)-2-hydroxy-4-{[(3S,4S)-3-hydroxy-3,4-dihydro-2H-1-benzopyran-4-yl]carbamoyl}-4-[(5-propyl-1,3,4-oxadiazol-2-yl)methyl]butyl]-N-(2,2,2-trifluoroethyl)piperazine-2-carboxamide] | – | < 15 pM
